According to ChEMBL document CHEMBL5465560, “Selectivity Literature for EUbOPEN Chemogenomic Library” (2024):
Values belong to the compound of their own block, whether it stands above or below them.

Key:
[1] = target: Serine/threonine-protein kinase/endoribonuclease IRE1 (Homo sapiens) (UniProt O75460); test: Selectivity interaction (KinomeScan (DiscoverX)) EUB0000666a ERN1; settings: at 10 µM
[2] = target: Adenosine receptor A2a (Homo sapiens, UniProt P29274); test: Selectivity interaction (Adenosine 2A receptor binding assay, human recombinant ) EUB0000877a ADORA2A
[3] = target: Cyclin-dependent kinase 1/cyclin B (Homo sapiens) (UniProt P06493+P14635+Q8WWL7+O95067); test: Selectivity interaction (SelectScreen profiling (Invitrogen)) EUB0000607a CDK1; type: protein-complex assay; settings: at 2 µM
[4] = target: Myosin light chain kinase, smooth muscle (Homo sapiens, UniProt Q15746); test: Selectivity interaction (KinomeScan (DiscoverX)) EUB0000607a MYLK; settings: at 10 µM
[5] = target: T1, Serine/threonine-protein kinase BRSK2 (Homo sapiens) (UniProt Q8IWQ3); test: Selectivity interaction (Upstate Kinase Profiler service (Millipore)) EUB0000056c BRSK2; settings: at 1 µM
T1 sequence (whole entry): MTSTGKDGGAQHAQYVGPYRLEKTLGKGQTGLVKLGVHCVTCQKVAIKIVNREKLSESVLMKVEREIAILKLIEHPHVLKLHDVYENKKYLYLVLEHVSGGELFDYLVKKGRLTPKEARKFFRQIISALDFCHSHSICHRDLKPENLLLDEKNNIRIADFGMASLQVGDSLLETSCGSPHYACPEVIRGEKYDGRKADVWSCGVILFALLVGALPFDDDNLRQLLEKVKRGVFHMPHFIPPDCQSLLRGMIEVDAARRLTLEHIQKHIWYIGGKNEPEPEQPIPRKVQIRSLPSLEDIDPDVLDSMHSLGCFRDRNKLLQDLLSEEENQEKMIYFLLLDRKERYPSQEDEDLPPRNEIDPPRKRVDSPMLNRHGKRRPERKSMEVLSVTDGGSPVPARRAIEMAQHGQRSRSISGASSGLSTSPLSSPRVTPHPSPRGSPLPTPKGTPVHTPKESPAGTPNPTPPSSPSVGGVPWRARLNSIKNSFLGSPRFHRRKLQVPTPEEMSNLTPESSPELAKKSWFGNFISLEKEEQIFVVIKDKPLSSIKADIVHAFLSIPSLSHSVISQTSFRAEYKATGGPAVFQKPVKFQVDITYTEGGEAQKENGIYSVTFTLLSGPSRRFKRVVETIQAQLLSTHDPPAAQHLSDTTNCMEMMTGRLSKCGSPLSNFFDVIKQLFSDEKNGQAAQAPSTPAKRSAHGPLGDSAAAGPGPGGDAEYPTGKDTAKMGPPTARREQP

[6] = target: Ribosomal protein S6 kinase alpha-3 (Homo sapiens, UniProt P51812); test: Selectivity interaction (Upstate Kinase Profiler service (Millipore)) EUB0000056c RPS6KA3; settings: at 1 µM
[7] = target: Interleukin-1 receptor-associated kinase 1 (Homo sapiens) (UniProt P51617); test: Selectivity interaction (ActivX KiNativ screen (kinase selectivity in THP-1 cell lysates)) EUB0000639a IRAK1; type: subcellular; settings: lysate
[8] = target: Dual specificity mitogen-activated protein kinase kinase 2 (Homo sapiens) (UniProt P36507); test: Selectivity interaction (Kinase panel (Invitrogen)) EUB0000639a MAP2K2; settings: at 200 nM
[9] = target: T2, Serine/threonine-protein kinase Sgk2 (Homo sapiens) (UniProt Q9HBY8); test: Selectivity interaction (ActivX KiNativ screen (kinase selectivity in THP-1 cell lysates)) EUB0000639a SGK2; type: subcellular; settings: lysate
T2 sequence (whole entry): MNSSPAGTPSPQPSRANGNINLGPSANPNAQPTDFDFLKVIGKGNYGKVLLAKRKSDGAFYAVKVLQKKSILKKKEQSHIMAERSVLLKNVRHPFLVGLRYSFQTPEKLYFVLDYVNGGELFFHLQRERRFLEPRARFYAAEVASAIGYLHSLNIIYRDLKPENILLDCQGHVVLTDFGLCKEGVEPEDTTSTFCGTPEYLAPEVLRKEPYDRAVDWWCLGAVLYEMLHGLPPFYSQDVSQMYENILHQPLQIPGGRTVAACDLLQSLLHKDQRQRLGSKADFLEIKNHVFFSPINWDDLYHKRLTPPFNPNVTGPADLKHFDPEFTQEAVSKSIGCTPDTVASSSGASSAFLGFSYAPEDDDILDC

[10] = target: Mitogen-activated protein kinase kinase kinase kinase 5 (Homo sapiens) (UniProt Q9Y4K4); test: Selectivity interaction (ProQinase) EUB0000171b MAP4K5
[11] = target: T3, Serine/threonine-protein kinase VRK1 (Homo sapiens) (UniProt Q99986); test: Selectivity interaction (ProQinase) EUB0000171b VRK1
T3 sequence (whole entry): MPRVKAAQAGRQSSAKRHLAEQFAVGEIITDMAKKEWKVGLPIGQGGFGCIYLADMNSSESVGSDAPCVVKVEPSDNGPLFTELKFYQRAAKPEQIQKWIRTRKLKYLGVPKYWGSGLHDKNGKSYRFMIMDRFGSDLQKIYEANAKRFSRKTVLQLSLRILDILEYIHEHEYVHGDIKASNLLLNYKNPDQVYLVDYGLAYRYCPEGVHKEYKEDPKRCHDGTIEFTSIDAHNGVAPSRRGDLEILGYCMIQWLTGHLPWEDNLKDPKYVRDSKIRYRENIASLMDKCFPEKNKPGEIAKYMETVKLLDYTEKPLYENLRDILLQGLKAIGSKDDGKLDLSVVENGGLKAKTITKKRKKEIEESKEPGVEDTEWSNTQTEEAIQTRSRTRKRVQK

[12] = target: Cyclin-dependent kinase 15 (Homo sapiens) (UniProt Q96Q40); test: Selectivity interaction (KinomeScan (DiscoverX)) EUB0000595a CDK15; settings: at 10 µM
[13] = target: BDNF/NT-3 growth factors receptor (Homo sapiens) (UniProt Q16620); test: Selectivity interaction (KinomeScan (DiscoverX)) EUB0000655a NTRK2; settings: at 10 µM
[14] = target: Histamine H1 receptor (Homo sapiens, UniProt P35367); test: Selectivity interaction (GPCR panel (PDSP screen)) EUB0001079a HRH1; settings: at 10 µM
[15] = target: Dual specificity tyrosine-phosphorylation-regulated kinase 1B (Homo sapiens, UniProt Q9Y463); test: Selectivity interaction (KinomeScan (DiscoverX)) EUB0001550a DYRK1B; settings: at 1 µM
[16] = target: Mitogen-activated protein kinase kinase kinase kinase 1 (Homo sapiens) (UniProt Q92918); test: Selectivity interaction (ActivX KiNativ screen (ex vivo kinase selectivity in human PBMCs)) EUB0001619a MAP4K1; type: cell-based; settings: PBMC, at 1 µM
Mitogen-activated protein kinase kinase kinase kinase 1 (Homo sapiens), sequence (Q92918 whole entry, looked up): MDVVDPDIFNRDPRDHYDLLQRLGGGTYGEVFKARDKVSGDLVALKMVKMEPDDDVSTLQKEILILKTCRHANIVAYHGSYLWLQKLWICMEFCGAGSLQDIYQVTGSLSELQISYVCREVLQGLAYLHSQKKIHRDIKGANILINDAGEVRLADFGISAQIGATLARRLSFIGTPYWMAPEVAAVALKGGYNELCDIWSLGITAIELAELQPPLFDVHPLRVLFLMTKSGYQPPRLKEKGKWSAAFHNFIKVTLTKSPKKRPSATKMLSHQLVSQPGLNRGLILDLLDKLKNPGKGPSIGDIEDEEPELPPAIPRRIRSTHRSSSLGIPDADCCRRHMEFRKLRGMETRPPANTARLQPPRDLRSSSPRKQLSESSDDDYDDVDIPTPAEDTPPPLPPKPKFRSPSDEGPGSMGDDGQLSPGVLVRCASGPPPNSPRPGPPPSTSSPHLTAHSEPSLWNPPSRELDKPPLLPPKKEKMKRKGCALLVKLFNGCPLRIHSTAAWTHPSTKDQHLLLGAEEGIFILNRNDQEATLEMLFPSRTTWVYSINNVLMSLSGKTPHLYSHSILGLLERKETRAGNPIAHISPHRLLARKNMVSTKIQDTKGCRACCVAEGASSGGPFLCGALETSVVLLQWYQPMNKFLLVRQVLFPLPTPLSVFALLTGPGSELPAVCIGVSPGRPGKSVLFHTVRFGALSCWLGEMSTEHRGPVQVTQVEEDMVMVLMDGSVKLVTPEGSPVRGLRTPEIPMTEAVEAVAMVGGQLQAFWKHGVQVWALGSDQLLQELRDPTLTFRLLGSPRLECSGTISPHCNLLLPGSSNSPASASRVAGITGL

Interleukin-1 receptor-associated kinase 1 (Homo sapiens), sequence (P51617 whole entry, looked up): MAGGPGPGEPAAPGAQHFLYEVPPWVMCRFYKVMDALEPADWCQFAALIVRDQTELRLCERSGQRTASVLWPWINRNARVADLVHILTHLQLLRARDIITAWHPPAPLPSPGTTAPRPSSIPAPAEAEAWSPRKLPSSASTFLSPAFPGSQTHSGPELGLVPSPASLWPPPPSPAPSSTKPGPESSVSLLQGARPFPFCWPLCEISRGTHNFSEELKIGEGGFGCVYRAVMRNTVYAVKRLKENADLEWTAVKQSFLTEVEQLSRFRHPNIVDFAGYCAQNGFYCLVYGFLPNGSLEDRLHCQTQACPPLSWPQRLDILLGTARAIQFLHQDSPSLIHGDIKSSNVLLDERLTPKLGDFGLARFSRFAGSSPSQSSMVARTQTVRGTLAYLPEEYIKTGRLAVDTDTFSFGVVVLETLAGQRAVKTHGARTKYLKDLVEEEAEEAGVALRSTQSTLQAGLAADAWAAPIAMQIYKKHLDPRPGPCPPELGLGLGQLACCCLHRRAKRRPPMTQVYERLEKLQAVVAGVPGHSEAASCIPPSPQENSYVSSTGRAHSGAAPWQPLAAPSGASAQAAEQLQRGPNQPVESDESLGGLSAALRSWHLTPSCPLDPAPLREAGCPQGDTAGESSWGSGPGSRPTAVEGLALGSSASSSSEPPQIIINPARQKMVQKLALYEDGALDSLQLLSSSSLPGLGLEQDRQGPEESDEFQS
Mitogen-activated protein kinase kinase kinase kinase 5 (Homo sapiens), sequence (Q9Y4K4 whole entry, looked up): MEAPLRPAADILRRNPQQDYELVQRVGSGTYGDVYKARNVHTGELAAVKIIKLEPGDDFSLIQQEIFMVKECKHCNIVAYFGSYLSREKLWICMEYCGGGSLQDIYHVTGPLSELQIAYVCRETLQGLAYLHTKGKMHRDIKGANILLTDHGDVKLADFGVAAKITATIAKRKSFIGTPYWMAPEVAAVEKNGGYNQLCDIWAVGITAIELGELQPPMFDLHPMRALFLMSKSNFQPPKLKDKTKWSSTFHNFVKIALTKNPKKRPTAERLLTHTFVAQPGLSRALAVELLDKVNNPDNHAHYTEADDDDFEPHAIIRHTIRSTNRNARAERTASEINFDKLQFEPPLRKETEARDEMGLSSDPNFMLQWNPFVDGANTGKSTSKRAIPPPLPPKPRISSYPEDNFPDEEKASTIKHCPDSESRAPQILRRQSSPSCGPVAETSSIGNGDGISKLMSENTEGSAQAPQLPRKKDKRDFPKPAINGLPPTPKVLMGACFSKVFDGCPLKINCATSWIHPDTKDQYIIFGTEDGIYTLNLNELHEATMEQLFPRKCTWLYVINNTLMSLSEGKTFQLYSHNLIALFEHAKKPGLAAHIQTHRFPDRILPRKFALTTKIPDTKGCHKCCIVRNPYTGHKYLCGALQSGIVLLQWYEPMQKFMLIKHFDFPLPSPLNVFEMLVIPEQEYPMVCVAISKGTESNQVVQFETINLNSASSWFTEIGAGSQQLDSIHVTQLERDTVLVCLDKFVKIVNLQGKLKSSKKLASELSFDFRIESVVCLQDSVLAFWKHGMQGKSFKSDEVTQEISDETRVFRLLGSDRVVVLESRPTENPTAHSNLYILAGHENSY
Adenosine receptor A2a, sequence (P29274 whole entry): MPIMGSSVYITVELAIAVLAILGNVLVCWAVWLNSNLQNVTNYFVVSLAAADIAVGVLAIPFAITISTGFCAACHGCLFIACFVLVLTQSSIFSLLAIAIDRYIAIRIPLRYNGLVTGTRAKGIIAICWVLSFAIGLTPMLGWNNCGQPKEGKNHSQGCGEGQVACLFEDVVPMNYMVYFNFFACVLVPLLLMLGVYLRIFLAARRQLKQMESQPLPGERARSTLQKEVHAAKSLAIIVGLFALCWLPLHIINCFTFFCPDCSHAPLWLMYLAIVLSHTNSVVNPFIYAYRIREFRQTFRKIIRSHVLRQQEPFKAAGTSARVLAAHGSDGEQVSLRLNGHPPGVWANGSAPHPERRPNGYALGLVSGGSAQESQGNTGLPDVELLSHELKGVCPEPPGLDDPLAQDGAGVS
BDNF/NT-3 growth factors receptor (Homo sapiens), sequence (Q16620 32-822 limits assumed): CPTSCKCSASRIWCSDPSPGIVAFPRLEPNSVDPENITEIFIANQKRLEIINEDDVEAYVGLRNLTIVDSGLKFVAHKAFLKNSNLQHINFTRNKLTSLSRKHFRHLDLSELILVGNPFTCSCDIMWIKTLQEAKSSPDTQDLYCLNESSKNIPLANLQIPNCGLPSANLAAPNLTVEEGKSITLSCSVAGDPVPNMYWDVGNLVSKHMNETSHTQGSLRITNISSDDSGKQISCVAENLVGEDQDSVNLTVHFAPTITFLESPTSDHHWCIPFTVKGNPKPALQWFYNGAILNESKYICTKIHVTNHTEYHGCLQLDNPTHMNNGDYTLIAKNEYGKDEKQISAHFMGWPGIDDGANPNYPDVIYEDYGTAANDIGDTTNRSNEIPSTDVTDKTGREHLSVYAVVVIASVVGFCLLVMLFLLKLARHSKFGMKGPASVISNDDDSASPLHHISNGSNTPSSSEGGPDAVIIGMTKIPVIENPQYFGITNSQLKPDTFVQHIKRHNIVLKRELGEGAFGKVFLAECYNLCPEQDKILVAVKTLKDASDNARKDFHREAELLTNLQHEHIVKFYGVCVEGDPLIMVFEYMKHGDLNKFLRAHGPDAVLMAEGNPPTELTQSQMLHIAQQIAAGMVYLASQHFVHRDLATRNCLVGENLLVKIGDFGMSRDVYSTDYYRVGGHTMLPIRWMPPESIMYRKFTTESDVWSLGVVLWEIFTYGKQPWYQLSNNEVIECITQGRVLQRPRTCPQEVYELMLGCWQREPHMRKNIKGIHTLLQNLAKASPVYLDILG
Cyclin-dependent kinase 15 (Homo sapiens), sequence (Q96Q40 whole entry): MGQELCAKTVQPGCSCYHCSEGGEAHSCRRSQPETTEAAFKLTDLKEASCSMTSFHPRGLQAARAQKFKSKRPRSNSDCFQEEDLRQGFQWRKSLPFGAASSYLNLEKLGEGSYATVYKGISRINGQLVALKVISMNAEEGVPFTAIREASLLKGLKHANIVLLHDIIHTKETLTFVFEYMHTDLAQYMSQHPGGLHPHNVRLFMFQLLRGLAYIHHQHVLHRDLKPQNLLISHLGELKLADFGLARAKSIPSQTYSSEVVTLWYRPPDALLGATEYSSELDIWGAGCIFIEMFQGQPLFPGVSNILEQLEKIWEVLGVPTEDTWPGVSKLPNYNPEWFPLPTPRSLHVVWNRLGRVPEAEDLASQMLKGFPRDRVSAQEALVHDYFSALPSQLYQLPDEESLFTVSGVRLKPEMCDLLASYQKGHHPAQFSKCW
Dual specificity mitogen-activated protein kinase kinase 2 (Homo sapiens), sequence (P36507 whole entry): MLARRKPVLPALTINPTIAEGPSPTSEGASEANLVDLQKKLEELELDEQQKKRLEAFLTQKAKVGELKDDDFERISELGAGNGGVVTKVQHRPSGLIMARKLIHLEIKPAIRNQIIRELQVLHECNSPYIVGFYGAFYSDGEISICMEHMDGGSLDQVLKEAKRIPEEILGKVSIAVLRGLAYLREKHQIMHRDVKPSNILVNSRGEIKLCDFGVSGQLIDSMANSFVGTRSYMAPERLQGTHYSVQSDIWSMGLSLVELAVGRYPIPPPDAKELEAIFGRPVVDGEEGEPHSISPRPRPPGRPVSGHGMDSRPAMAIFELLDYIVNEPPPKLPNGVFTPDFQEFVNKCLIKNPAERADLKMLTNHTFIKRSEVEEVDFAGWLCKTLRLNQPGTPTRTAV
Histamine H1 receptor, sequence (P35367 whole entry): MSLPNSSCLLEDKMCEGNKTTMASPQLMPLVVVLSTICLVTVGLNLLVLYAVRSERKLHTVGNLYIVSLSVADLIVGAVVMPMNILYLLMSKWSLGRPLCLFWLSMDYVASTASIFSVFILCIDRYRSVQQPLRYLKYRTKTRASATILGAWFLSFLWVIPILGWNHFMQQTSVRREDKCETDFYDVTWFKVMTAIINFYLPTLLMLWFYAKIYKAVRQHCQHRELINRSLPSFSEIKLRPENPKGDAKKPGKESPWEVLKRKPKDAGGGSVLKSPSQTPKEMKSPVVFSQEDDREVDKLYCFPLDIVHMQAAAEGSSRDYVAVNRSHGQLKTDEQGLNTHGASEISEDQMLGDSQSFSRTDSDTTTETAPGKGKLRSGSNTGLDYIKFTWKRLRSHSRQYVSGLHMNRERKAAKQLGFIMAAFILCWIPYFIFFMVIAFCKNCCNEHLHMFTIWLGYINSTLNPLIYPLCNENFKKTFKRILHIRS

Structure (SMILES): O=C(NOC[C@H](O)CO)c1ccc(F)c(F)c1Nc1ccc(I)cc1F
- % of control [1]: 97%

- IC50 [2]: > 30 µM
Structure (SMILES): CCC(=O)N1CC[C@H](Nc2ncnc3c2CN(c2cnc(OC)c(C(F)(F)F)c2)CC3)C1 [LENIOLISIB]

Structure (SMILES): CNC(=O)Nc1ccc(-c2nc(N3CC4CCC(C3)O4)c3cnn(C4CCC5(CC4)OCCO5)c3n2)cc1
- % of inhibition [3]: 6%
- % of control [4]: 100%

- % of inhibition [5]: 93%
- % of inhibition [6]: 27%
Structure (SMILES): Cc1ccc(-c2ccc3c(ccc4sc5c(c43)NC[C@@H](C)NC5=O)n2)cn1

- % of inhibition ([7]; at 0.01 µM): 2.3%
- % of inhibition ([7]; at 0.04 µM): 8.5%
- % of inhibition ([7]; at 0.2 µM): 2.2%
- % of inhibition ([7]; at 1 µM): 19.8%
- % of inhibition ([7]; at 5 µM): 60.7%
- % of inhibition [8]: 5.73%
- % of inhibition ([9]; at 0.01 µM): -1%
- % of inhibition ([9]; at 0.04 µM): 3.1%
- % of inhibition ([9]; at 0.2 µM): -5.7%
- % of inhibition ([9]; at 1 µM): -1%
- % of inhibition ([9]; at 5 µM): -1.4%
Structure (SMILES): CC[C@@H]1[C@H](F)C(=O)N[C@@H]1COc1nccc2cc(C(N)=O)c(OC)cc12 [ZIMLOVISERTIB]

- % of control ([10]; at 1 µM): 71%
- % of control ([10]; at 5 µM): 49%
- % of control ([11]; at 1 µM): 95%
- % of control ([11]; at 5 µM): 97%
Structure (SMILES): C=CC(=O)Nc1cccc(C(=O)Nc2ccc(Nc3cc(-c4[nH]c(SC)nc4C)ccn3)cc2)c1

Structure (SMILES): COCC(=O)NC/C=C/c1ccc2ncnc(Nc3ccc(Oc4ccc(C)nc4)c(C)c3)c2c1 [CP-724714]
- % of control [12]: 71%

Structure (SMILES): CN(C)CCOc1ccc(-c2nc(-c3ccncc3)c(-c3ccc4c(c3)CC/C4=N\O)[nH]2)cc1
- % of control [13]: 75%

Structure (SMILES): Nc1cnc(N2CCc3cc(S(=O)(=O)Nc4c(F)cc(Cl)cc4F)cc(N4CCCC4=O)c32)nc1 [TP-020n]
- % of inhibition [14]: -2.69%

- % of control [15]: 26%
Structure (SMILES): CN(C)CC#Cc1ccc2[nH]c3c(c2c1)-c1nc(N)ncc1CCC3

Structure (SMILES): N#Cc1cccc(-c2c[nH]c3ncnc(N4CCOCC4)c23)c1
- % of inhibition [16]: 7%
